From patent publication US20080274883A1, “Fungicidal Mixtures” (BASF AKTIENGESELLSCHAFT, priority 2004, published 2008)

How the values were obtained:
[1] = system: Erysiphe [syn. Blumeria] graminis form a specialis. tritici; assay: Efficacy against wheat mildew caused by Erysiphe [syn. Blumeria] graminis forma specialis tritici; format: in vivo; settings: wheat seedlings sprayed, dusted with spores 24 hours later, rated after 7 days, untreated control 90% infestation
Phytophthora infestans = format: in vivo, Phytophthora infestans on potted tomato plants; settings: 1 ppm; protective spray on tomato leaves, infested next day, rated after 6 days; efficiency by Abbot's formula vs untreated control (90% infestation)

| SMILES | Observed action (%) ([1]; 4 ppm) | Observed action (%) (Phytophthora infestans) | Observed action (%) ([1]; 16 ppm) |
| --- | --- | --- | --- |
| COc1ccc(C(=CC(=O)N2CCOCC2)c2ccc(F)cc2)cc1OC [flumorph (IIA), 4-[3-(3,4-dimethoxyphenyl)-3-(4-fluorophenyl)-1-oxo-2-propenyl]morpholine] | 0% |  |  |
| COc1ccc(C(=CC(=O)N2CCOCC2)c2ccc(Cl)cc2)cc1OC [dimethomorph (II), 3-(4-chlorophenyl)-3-(3,4-dimethoxyphenyl)-1-morpholin-4-ylpropenone] | 0% | 22% |  |
| CO/C=C(/C(=O)OC)c1ccccc1CO/N=C(C)/C=C/c1ccc(Cl)cc1 [enestrobin (I), methyl 2-(2-[3-(4-chlorophenyl)-1-methyl-allylidenaminooxymethyl]phenyl)-3-methoxyacrylate] |  | 0% | 33% |
